Measurements published in PubChem BioAssay (NCI).
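Cultured in 96-well plates, cells were exposed to test compound for 48 hours across five concentrations. GI50 is the concentration that inhibits growth by half. At the TGI there is no net growth.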

How the values were obtained:
Assay in all cases: growth of human tumour cells (NCI), 48 h
[1] = system: ACHN renal
[2] = system: MOLT-4 leukemia
[3] = system: BT-549 breast
[4] = system: HCT-116 colon
[5] = system: UACC-62 melanoma
[6] = system: SK-MEL-5 melanoma
[7] = system: OVCAR-8 ovarian
[8] = system: HS 578T breast
[9] = system: XF 498 CNS
[10] = system: DMS 114 small cell lung

Row | Structure (SMILES) | GI50 [1] [µM] | TGI [1] [µM] | GI50 [2] [µM] | TGI [2] [µM] | GI50 [3] [µM] | TGI [3] [µM] | GI50 [4] [µM] | TGI [4] [µM] | GI50 [5] [µM] | TGI [5] [µM] | GI50 [6] [µM] | TGI [6] [µM] | GI50 [7] [µM] | TGI [7] [µM] | GI50 [8] [µM] | TGI [8] [µM] | TGI [9] [µM] | TGI [10] [µM]
1 | C=C1CC[C@@H]2[C@](C)(COC(C)=O)[C@H](OC(C)=O)CC[C@@]2(C)[C@@H]1CC(Nc1ccc(S(=O)(=O)Nc2ncccn2)cc1)C1=CCOC1=O (stereo not given in full) | 1.72 | 3.27 | 2.27 | 8.37 | 1.64 | 3.39 | 0.879 | 2.49 | 1.11 | 2.56 | 1.9 | 3.85 | 1.48 | 3.55 | 3.54 | 24.4 |  | 
2 | C/C(=N\Nc1ccc(Cl)cn1)c1ccccn1 | 0.042 | 27.1 | 0.026 | > 42 | 0.362 | > 76 | 0.0201 | > 33.8 | 0.172 | > 100 | 0.343 | 5.48 | 0.0704 | > 100 | 0.616 | > 73.8 |  | 
3 | CCCS(=O)(=O)/C(=C(\c1ccc(Br)cc1)S(=O)(=O)CCC)c1ccc(Br)cc1 |  | > 10 |  | > 10 |  |  |  | > 10 |  | > 10 |  | > 10 |  | > 10 |  |  | > 10 | 
4 | COc1ccc(OC)c(C(=O)c2oc3ccc(Br)cc3c2N)c1 | 0.627 | > 65.1 | 0.425 | 23.7 | 0.584 | 21.1 | 0.346 | 13.9 | 0.432 | 14.3 | 0.41 | 16.9 | 0.576 | 97.9 | 0.403 | > 64.8 |  | 
5 | CCc1oc2ccccc2c1C(=O)c1cc(I)c(O)c(I)c1 | 4.87 | 18.2 | 3.33 | 26.6 | 2.79 | 13.9 | 2.91 | 12 | 3.32 | 16.8 | 3.2 | 13.9 | 4.9 | 28.5 | 2.22 | 7.41 |  | 
6 | COc1cccc(N2C(=O)[C@H]3CC(C)c4c([nH]c5ccccc45)[C@H]3C2=O)c1 (stereo not given in full) |  |  |  | > 100 |  |  |  |  |  | > 100 |  | > 100 |  | > 100 |  |  | > 100 | 
7 | COC(=O)c1cc(C)c(C)c2c1NC(=O)CNC2=O |  | > 100 |  | > 100 |  |  |  | > 100 |  | > 100 |  |  |  | > 100 |  |  | > 100 | > 100
8 | Fc1ccc(C2SCc3nc4ccccc4n32)cc1Cl (stereo not given) |  | > 100 |  | 69.9 |  |  |  |  |  | 25.6 |  |  |  | 48.1 |  |  | 31.7 | 57.4
9 | CC[C@H](C)[C@H]1O[C@]2(C=C[C@@H]1C)C[C@@H]1C[C@@H](C/C=C(\C)[C@@H](O[C@H]3C[C@H](OC)[C@@H](O[C@H]4C[C@H](OC)[C@@H](NC)[C@H](C)O4)[C@H](C)O3)[C@@H](C)/C=C/C=C3\CO[C@@H]4[C@H](O)C(C)=C[C@@H](C(=O)O1)[C@]34O)O2 | 2.73 | 10.8 | 1.81 | 4.48 | 4.13 | 15.1 | 2 | 5.12 | 1.99 | 4.28 | 1.8 | 3.2 | 3.84 | 14.5 | 2.31 | 6.56 |  | 
